The results in this text go back to patent publication US10336746B1, “RAD51 inhibitors” (Cyteir Therapeutics, Inc., priority 2017, dated 2019).

Series [1] concerns CCRF-SB (Leukemia). The series can be described thus: Cell line screen, CCRF-SB. In kind it is cell-based. To be noted: Homo sapiens, AICDA Expression High. On the procedure: (§1) The activity of the claimed compounds was measured in a variety of cell lines with different expression levels of activation induced cytidine deaminase (AICDA). The potency assay was repeated in all of the listed cell lines and the EC50 values recorded.

The subject of series [2] is KYSE-70 (Head and Neck). The series can be described thus: Cell line screen, KYSE-70. In kind it is cell-based. The following applies: Homo sapiens, AICDA Expression Low. The protocol:
as §1

The nature of series [3]: Bi-directional Caco-2 permeability. In kind it is in vitro ADME. The following applies: human; for efflux ratio at 90 min: Caco-2, read-out: BA/AB Ratio; for Papp A→B at 90 min: Caco-2, apical to basolateral, read-out: AB Papp (cm/sec × 10^6); for Papp A→B at 90 min / Papp B→A at 90 min: 37 C, up to 90 minutes; for Papp B→A at 90 min: Caco-2, basolateral to apical, read-out: BA Papp (cm/sec × 10^6). On the procedure: Bi-directional Caco-2 permeability was assayed. Caco-2 cells were seeded onto permeable polycarbonate supports and allowed to differentiate for about 3 weeks prior to being used in the assays. The cells were then exposed to the compounds from either the apical or basolateral sides and incubated at 37 C for up to 90 minutes under light agitation. Compound transport was then measured using LC/MS/MS analysis at 30, 60, and 90 minutes.

For series [4], the system named is U-698-M (Lymphoma). The series can be described thus: Cell line screen, U-698-M. In kind it is cell-based. To be noted: AICDA Expression High. The protocol:
as §1

Series [5] is described as follows: Human liver microsome stability. In kind it is in vitro ADME. To be noted: human liver microsomes. The protocol: The stability of the claimed compounds was determined in the presences of human liver microsomes. The compounds were incubated with the microsomes at 37° C. for 45 minutes. Samples were analyzed using LC-MS/MS. Data analysis included half-life, clearance rate, and the percentage of hepatic blood flow (% QH) for each of the compounds in the different species.
For orientation: Liver microsomes are a subcellular fraction often used to study metabolism.

Series [6] relates to WI-38 cells (AID negative). The series can be described thus: Primary screening cell killing assay repeated in WI-38 cells (AID negative). In kind it is cell-based. The following applies: Homo sapiens, 168 h, cell death on Day 7, Cell-Titer Glo. Put shortly:
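Cell-killing counter-screen in AID-negative WI-38 cells, probing RAD51 inhibition via AID/RAD51 synthetic lethality. Viability luminescence (RLU) was media-subtracted, normalized to DMSO wells, and converted to percent kill (1 − normalized RLU) × 100; EC50 came from non-linear regression on a semi-log scale.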

The test system of series [7] is KYSE-510 (Head and Neck). The series can be described thus: Cell line screen, KYSE-510. In kind it is cell-based. The following applies: Homo sapiens, AICDA Expression Negative. On the procedure:
as §1

Series [8] deals with Daudi cell line (AID positive). The experiment in a line: Primary screening cell killing assay, Daudi cell line (AID positive). To be noted: Homo sapiens, 168 h, cell death on Day 7, Cell-Titer Glo. In kind it is cell-based. The procedure, abridged: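 AID-positive Daudi cells, 1250 per well, were exposed to serially diluted compounds for 7 days at 37° C. Viability read by CellTiter-Glo luminescence; percent cell death and EC50 derived against untreated wells after media-blank subtraction.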

Series [9] concerns WSU-FSCCL (Lymphoma). The series can be described thus: Cell line screen, WSU-FSCCL. In kind it is cell-based. The following applies: AICDA Expression Negative. On the procedure: as §1
Series [10] relates to WI-38 (Normal Human Lung Fibroblast). The experiment in a line: Cell line screen, WI-38. In kind it is cell-based. To be noted: AICDA Expression Negative. The protocol:
as §1

For series [11], the system named is Daudi (Lymphoma). The series can be described thus: Cell line screen, Daudi. In kind it is cell-based. To be noted: Homo sapiens, AICDA Expression High. On the procedure: as §1
The test system of series [12] is KG-1 (Leukemia). The experiment in a line: Cell line screen, KG-1. In kind it is cell-based. To be noted: AICDA Expression Negative. On the procedure:
as §1

Series [13] can be described thus: Pharmacokinetic (PK) study, plasma by LC-MS. In kind it is in vivo, Rat. The following applies: po @ 80 mg/kg (30% PEG400, 10% Vitamin E TPGS in water); for half-life: plasma. On the procedure: PK studies in mice were used to determine the fate of the compounds in a whole organism. Rats were treated with the compounds either orally of via IV at the indicated doses and followed for up to 24 hours. Plasma samples were taken at different time points and analyzed by LC-MS.

Series [14] concerns ARPE19/HPV16 (HPV Immortalized RPE). The experiment in a line: Cell line screen, ARPE19/HPV16. In kind it is cell-based. The following applies: ARPE-19, AICDA Expression Negative. On the procedure:
as §1

Setting [15] is: Caco-2, Caco-2, AB direction, read-out: AB Recovery %.
[16] abbreviates: Caco-2, Caco-2, BA direction, read-out: BA Recovery %.

Where two headings read alike, the source gives them in different places.

Take `CC(C)OC(=O)N[C@H]1CC[C@H](c2ncc(-c3ccc(NC(=O)NCc4ncccc4F)cc3S(=O)(=O)NC(C)(C)C)s2)CC1` [Ex. 31, isopropyl ((1r,4r)-4-(5-(2-(N-(tert-butyl)sulfamoyl)-4-(3-((3-fluoropyridin-2-yl)methyl)ureido)phenyl)thiazol-2-yl)cyclohexyl)carbamate]: the 50% effective concentration (EC50) was 2160 nM in series [1]; 4700 nM in [2]; 31 nM in series [4]; above 1000 nM in series [6]; above 10000 nM in series [7]; at most 100 nM in series [8]. The concentration giving a half-maximal response (EC50) was below 40 nM in series [9]; above 10000 nM in series [10]; 20 nM in series [11]; 8780 nM in series [12]; above 10000 nM in [14]. The recovery at 90 min came out at 70.5% in series [3] (setting [15]) and 92.3% in series [3] (setting [16]). In addition, in [3], the efflux ratio at 90 min stood at 1.1. Also, the Papp A→B at 90 min in series [3] turned out to be 12.8 ×10⁻⁶ cm/s. Besides, in series [3], the Papp B→A at 90 min came out at 13.6 ×10⁻⁶ cm/s. The “% QH (percentage of hepatic blood flow)” value in series [5] is reported as 77.3%. Further, the half-life in series [5] (37° C., 45 minutes) was 0.373 h; in [13] (Rat Female) it was 4.75 h; in [13] (Rat Male), 3.79 h. The microsomal CLint in series [5] (37° C., 45 minutes, read-out: Clearance (μg/min/mg)) was determined as 61.9 µL/min/mg. Also, the “F (%) @ 5 mg/kg” value is on record as 2.77% in [13] (Rat Female) and 1.49% in series [13] (Rat Male).
In the case of `CC(C)(C)NS(=O)(=O)c1cc(NC(=O)NCc2ccccc2F)ccc1-c1cnc(C2CCC(NC(=O)OC3COC3)CC2)s1` (centres unmarked) [Ex. 53, oxetan-3-yl ((1r,4r)-4-(5-(2-(N-(tert-butyl)sulfamoyl)-4-(3-(2-fluorobenzyl)ureido)phenyl)thiazol-2-yl)cyclohexyl)carbamate], the recovery at 90 min came out at 63.1% in series [3] (setting [15]) and 90.9% in [3] (setting [16]). Besides, the efflux ratio at 90 min in [3] worked out at 1. Further, in series [3], the Papp A→B at 90 min came to 9.3 ×10⁻⁶ cm/s. The Papp B→A at 90 min in [3] was 9.7 ×10⁻⁶ cm/s. In addition, the results for the EC50 in series [6] and in series [8] were above 1000 nM and at most 100 nM, respectively.
In the case of `C[C@H](NC(=O)Nc1ccc(-c2cnc(C3CCC(NC(=O)OC4COC4)CC3)s2)c(S(=O)(=O)NC(C)(C)C)c1)c1ccccc1F` (stereo partly drawn) [Ex. 55, oxetan-3-yl ((1S,4r)-4-(5-(2-(N-(tert-butyl)sulfamoyl)-4-(3-((S)-1-(2-fluorophenyl)ethyl)ureido)phenyl)thiazol-2-yl)cyclohexyl)carbamate], the results for the recovery at 90 min in series [3] (setting [15]) and in series [3] (setting [16]) were 65.2% and 83.8%, respectively. Also, in [3], the efflux ratio at 90 min was determined as 1.1. Further, the Papp A→B at 90 min in series [3] was 6.5 ×10⁻⁶ cm/s. In addition, in series [3], the Papp B→A at 90 min stood at 7 ×10⁻⁶ cm/s. The values for the EC50 in series [6] and in series [8] were above 1000 nM and at most 100 nM, respectively.
`CC(C)OC(=O)N[C@H]1CC[C@H](c2nc(F)c(-c3ccc(NC(=O)NCc4ccccc4)cc3S(=O)(=O)NC(C)(C)C)s2)CC1` [Ex. 57, trans-isopropyl N-[4-[5-[4-(benzylcarbamoylamino)-2-(tert-butylsulfamoyl)phenyl]-4-fluoro-thiazol-2-yl]cyclohexyl]carbamate]: the recovery at 90 min in [3] (setting [15]) is 61.9%. In series [3] (setting [16]), the recovery at 90 min was 86.8%. For the same compound, in series [3], the efflux ratio at 90 min was 2.7, the Papp A→B at 90 min stood at 1.3 ×10⁻⁶ cm/s and the Papp B→A at 90 min was determined as 3.5 ×10⁻⁶ cm/s. Besides, the EC50 in [6] is above 1000 nM. In series [8], this compound yielded an EC50 of at most 100 nM.
In the case of `CC(C)OC(=O)Nc1ccc(-c2sc(C3CCC(NC(=O)OC(C)C)CC3)nc2F)c(S(=O)(=O)NC(C)(C)C)c1` (centres unmarked) [Ex. 58, isopropyl ((1r,4r)-4-(5-(2-(N-(tert-butyl)sulfamoyl)-4-((isopropoxycarbonyl)amino)phenyl)-4-fluorothiazol-2-yl)cyclohexyl)carbamate], the recovery at 90 min in [3] (setting [15]) was determined as 52.3%. Moreover, the recovery at 90 min in [3] (setting [16]) worked out at 83.5%. In [3], the efflux ratio at 90 min amounted to 0.7, the Papp A→B at 90 min came to 5.1 ×10⁻⁶ cm/s and the Papp B→A at 90 min was determined as 3.4 ×10⁻⁶ cm/s. Moreover, the EC50 in series [6] was above 1000 nM. In addition, the EC50 in series [8] was 100 to 1000 nM.
Regarding `CC(C)OC(=O)N[C@@H]1CC[C@@H](c2ncc(-c3ccc(NC(=O)NCc4ccccc4)cc3S(=O)(=O)NC(C)(C)C)s2)OC1` [Ex. 59A], the recovery at 90 min in series [3] (setting [15]) came out at 55.6%. Also, the recovery at 90 min in series [3] (setting [16]) amounted to 85.5%. Also, in series [3], the efflux ratio at 90 min was 3.1, the Papp A→B at 90 min worked out at 3.1 ×10⁻⁶ cm/s and the Papp B→A at 90 min stood at 9.6 ×10⁻⁶ cm/s. In series [6], this compound gave an EC50 above 1000 nM. The EC50 in series [8] fell in the range of 100 to 1000 nM.
With `CC(C)OC(=O)N[C@H]1CC[C@H](c2ncc(-c3ccc(NC(=O)NCc4ccccc4)cc3S(=O)(=O)NC(C)(C)C)s2)OC1` [Ex. 59B], in series [3] (setting [15]), the recovery at 90 min is 56.2%. The recovery at 90 min in [3] (setting [16]) amounted to 82%. Further, in [3], the efflux ratio at 90 min stood at 2.1, the Papp A→B at 90 min was determined as 4.6 ×10⁻⁶ cm/s and the Papp B→A at 90 min turned out to be 9.7 ×10⁻⁶ cm/s. In [6], this compound displayed a concentration for a half-maximal effect (EC50) above 1000 nM. The compound also showed an EC50 in series [8] of at most 100 nM.
On to `CC(C)OC(=O)Nc1ccc(-c2cnc([C@@H]3CC[C@@H](NC(=O)OC(C)C)CO3)s2)c(S(=O)(=O)NC(C)(C)C)c1` [Ex. 60A], for which the recovery at 90 min in [3] (setting [15]) came out at 55.3%. Further, the recovery at 90 min in series [3] (setting [16]) worked out at 86%. Moreover, in series [3], the efflux ratio at 90 min came out at 0.9, the Papp A→B at 90 min is 12 ×10⁻⁶ cm/s and the Papp B→A at 90 min amounted to 11.2 ×10⁻⁶ cm/s. Further, in series [6], the EC50 was above 1000 nM. In series [8], this compound showed an EC50 above 1000 nM.
On to `CC(C)OC(=O)Nc1ccc(-c2cnc([C@H]3CC[C@H](NC(=O)OC(C)C)CO3)s2)c(S(=O)(=O)NC(C)(C)C)c1` [Ex. 60B], for which the recovery at 90 min worked out at 51.2% in [3] (setting [15]) and 84.3% in series [3] (setting [16]). The efflux ratio at 90 min in [3] came to 1.2. Besides, the Papp A→B at 90 min in [3] worked out at 11.6 ×10⁻⁶ cm/s. In [3], the Papp B→A at 90 min worked out at 13.5 ×10⁻⁶ cm/s. The EC50 was above 1000 nM in series [6] and 100 to 1000 nM in series [8].
With `CC(C)OC(=O)N[C@@H]1CC[C@@H](c2ncc(-c3ccc(NC(=O)NCc4ccccc4)cc3S(=O)(=O)NC(C)(C)C)s2)NC1` [Ex. 64, isopropyl ((3R,6S)-6-(5-(4-(3-benzylureido)-2-(N-(tert-butyl)sulfamoyl)phenyl)thiazol-2-yl)piperidin-3-yl)carbamate], in [3] (setting [15]), the recovery at 90 min was 79.7%. The recovery at 90 min in series [3] (setting [16]) worked out at 95.9%. For the same compound, in series [3], the efflux ratio at 90 min amounted to 12.5, the Papp A→B at 90 min amounted to 2.2 ×10⁻⁶ cm/s and the Papp B→A at 90 min is 27.4 ×10⁻⁶ cm/s. The EC50 in series [6] was above 1000 nM. Besides, the EC50 in series [8] was at most 100 nM.

What is called EC50 is the midpoint of the concentration-response curve. As a reminder, the half-life is how long it takes for the measured level to halve.
